The values that follow come from patent US20100104628A1, “METHOD OF TREATING NEUROBLASTOMA” (priority 2007, published 2010).

Data set [1] has as its system MCF7 (no NET). The data set can be described thus: Glutathione depletion in vitro, MCF7. The class given is cell-based, human. Conditions: 25 μM BSO, 7 hrs. The protocol:
(§1) The NB cell line SK—N-BE(2c) (high net) was treated with MIBG, MIBG-disulfide dimer (MIGB-S—S-MIBG), chloromethyl-MIBG (cmMIBG), and BSO. For comparison, the human breast cancer line MCF7 (no NET) was treated with chloromethyl-MIBG and BSO. At specific times, intracellular glutathione in drug-treated cells was determined relative to that in untreated cells (control).
(§2) Cells were exposed to 5 μM chloromethyl-MIBG (cmMIBG), 25 μM BSO and a combination of 5 μM chloromethyl-MIBG+25 μM BSO (both) for 7 hrs. Compared to controls, chloromethyl-MIBG alone depleted glutathione by about 30% in SK—N—Be(2c) cells and 8% in MCF7. BSO, as expected, depleted MCF7 and SK—N—Be(2c) by similar amounts (42 and 54% of controls, respectively). In combination studies, chloromethyl-MIBG+BSO depleted levels by about 85% in the SK—N—Be(2c) cells and had much less effect on the MCF7 cells with glutathione reduced by 49% relative to controls.

In data set [2] the test system is SK—N-BE(2c) (high NET). Put plainly: Glutathione depletion in vitro, SK-N-BE(2c). The class given is cell-based. The protocol:
as §1
SK—N-BE(2c) (high NET) cells were treated with a single concentration of chloromethyl-MIBG (25 μM at t=0). Glutathione concentrations in treated and untreated cells were measured at t=0.5, 1, 2, 3 and 4 hrs. Glutathione levels in drug-treated cells progressively fell, with a concentration 50% that of control at t 4 hrs (FIG. 10B).
as §2

Data set [3] in a line: Stability / reaction kinetics by proton NMR (half-life). It counts as physicochemical. Conditions: 37° C., pH 7.4, BisTris buffer, 5% DMSO. From the text:
Proton NMR was used to determine the half-lives for chloro- and bromomethyl-MIBG (Table 1). These analogs react with nucleophiles via an SN2 mechanism; therefore, the rate of the reaction depends on the strength and concentration of the nucleophile as well as the nature of the leaving group. Thus, the half-lives of the analogs are predictably longer in buffer than they are in buffer with added glutathione (a relatively strong nucleophile) and, under the same conditions, the bromo analog (better leaving group) reacts faster than the chloro analog.

In data set [4] the test system is SK-N-BE(2c) (NET ++++). The data set can be described thus: cells. The class given is cell-based.
In data set [5] the test system is SK-N-SH (NET ++). The data set can be described thus: Cytotoxicity, MTT assay, SK-N-SH. The class given is cell-based.
Data set [6] deals with MCF7 (NET 0). Put plainly: in vitro. The class given is cell-based, human.
Data set [7] has as its target T1, NET (Homo sapiens, UniProt P23975).
T1 construct: endogenous in cells; host or cells: SK-N-SH neuroblastoma cells
Put plainly: NET competitive binding assay ([125I]MIBG displacement, SK-N-SH cells). To be noted: 5 μM test compound, 2 hr incubation. The protocol:
An assay to assess binding of various MIBG-analogs to the NET was performed by published methods (Vaidynathan et al, Nucl. Med. Commun. 25:947-955 (2004), Vaidynathan et al, Bioorg. Med. Chem. 12:1649-1656 (2004), Vaidynathan et al, Bioconjugate Chem. 12:798-806 (2001), Vaidynathan et al, Eur. J. Nucl. Med. Mol. Imaging 31:1362-1370 (2004)). In brief, neuroblastoma SK—N—SH cells (moderate levels of NET) were treated with [^125I]MIBG and with increasing concentrations of unlabeled MIBG or MIBG-analogs. At the end of a 2 hr incubation and appropriate work-up, the cell-bound radioactivity was counted. Total cell-bound radioactivity minus non-specific cell-bound radioactivity gave a value for specific binding which was plotted in FIG. 9 against the concentration of test compounds. At 5 μM, cold MIBG displaced “100%” of the labeled-MIBG (i.e., “zero” cell-bound radioactivity). At 5 μM, chloromethyl-MIBG displaced 83%; the disulfide MIBG-SS-ethyl and the ester MIBG-phenylbutyrate displaced 50-55%; and hydroxymethyl-MIBG displaced 27%.

For data set [8] the following is noted: (101×C3H)F1 male mice, cited from earlier work.
A short description of data set [9]: in vitro. The class given is cell-based, human. Conditions: human; for IC50 at 24 h: 24 hr assay.
[10] abbreviates: 24 hr assay, single agent, 1% DMSO, read-out: Cytotoxicity IC50.
Where [11] appears, read: 48 hr assay (24 h exposure + 24 h recovery), Table 3, read-out: Cytotoxicity IC50.
Setting [12] is: single agent, 1% DMSO, read-out: Cytotoxicity IC50.

Several values for one entry are separate records, joined by “and”; a condition that tells them apart may be missing. Equal values may be shown once. Read-outs that look alike come from different tables or passages of the source.

T1 sequence (P23975 whole entry): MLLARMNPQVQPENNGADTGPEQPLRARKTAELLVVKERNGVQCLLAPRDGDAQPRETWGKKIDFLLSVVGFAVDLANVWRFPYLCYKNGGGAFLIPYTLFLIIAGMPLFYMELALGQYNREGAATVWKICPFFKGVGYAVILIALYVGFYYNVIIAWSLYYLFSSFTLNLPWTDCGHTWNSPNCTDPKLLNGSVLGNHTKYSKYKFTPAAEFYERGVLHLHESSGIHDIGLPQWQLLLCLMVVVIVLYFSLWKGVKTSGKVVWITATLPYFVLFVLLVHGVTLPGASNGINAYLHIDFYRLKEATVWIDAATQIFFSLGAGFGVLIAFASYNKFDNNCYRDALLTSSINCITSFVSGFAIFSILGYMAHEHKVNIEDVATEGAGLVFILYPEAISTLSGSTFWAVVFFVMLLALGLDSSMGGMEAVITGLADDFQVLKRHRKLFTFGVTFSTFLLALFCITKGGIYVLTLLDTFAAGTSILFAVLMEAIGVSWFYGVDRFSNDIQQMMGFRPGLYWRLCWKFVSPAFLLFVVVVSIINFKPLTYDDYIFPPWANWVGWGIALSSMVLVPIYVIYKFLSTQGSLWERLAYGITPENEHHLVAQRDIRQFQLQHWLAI

Consider `CCCCS(=N)(=O)CCC(N)C(=O)O` (stereo not shown) [BSO, buthionine sulfoximine], for which the “glutathione depletion compared to controls” value in [1] came out at 42%; in data set [2] (25 μM BSO, 7 hrs), 54%.
`N=C(N)NCc1ccc(CBr)c(I)c1` [Bromomethyl-MIBG]: in data set [3], the Half-life is given as 42.5 ± 0.7 min. For the same compound, the “Half-life w/10 eq GSH” value in data set [3] (10 eq GSH) was under 0.083 min.
For the compound `N=C(N)NCc1cccc(I)c1` [MIBG, meta-iodobenzylguanidine], the IC50 (commonly the concentration that gives 50% inhibition) in [4] (setting [10]) was 167 µM and 200 µM; in [4] (setting [11]), 142 ± 21 µM; in data set [5] (setting [11]) it was 190 ± 22 µM; in data set [6] (setting [10]) it was 227 µM and 232 µM; in data set [6] (setting [11]) it was 137 ± 27 µM.
Consider `N=C(N)NCc1cccc([131I])c1` [MIBG, meta-iodobenzylguanidine], for which, in data set [7], the “displacement of [125I]MIBG (specific cell-bound radioactivity)” value worked out at 100%. Also, the “effect on glutathione levels” value in data set [2] (concentrations up to 25 μM, incubation up to 4 hrs) was “did not significantly affect glutathione levels”.
For `N=C(N)NCc1ccc(CSC[C@H](NC(=O)CC[C@H](N)C(=O)O)C(=O)NCC(=O)O)c(I)c1` [MIBG-S-Glutathione], the IC50 in [4] is 390 µM; in data set [6], over 1000 µM.
Consider `CCSSCc1ccc(CNC(=N)N)cc1I` [MIBG-SS-ethyl], for which the IC50 in [4] (setting [11]) turned out to be 27.4 ± 4.09 µM; in data set [6] (setting [11]), 24.2 ± 7.21 µM.
Regarding `N=C(N)NCc1ccc(CSSCc2ccc(CNC(=N)N)cc2I)c(I)c1` [MIBG-disulfide dimer], in data set [2] (5 μM), the “effect on glutathione levels” value is listed as “a transient loss of glutathione was observed” and the “time for glutathione to return to pre-treatment levels” value is at most 8 h. In addition, in [2] (higher concentrations (25 and 100 microM), up to 8 hrs), the “effect on glutathione levels and cell viability” value is “extensive loss of glutathione and cell viability with no recovery”.
As to `N[C@@H](Cc1ccc(N(CCCl)CCCl)cc1)C(=O)O` [Melphalan], in data set [8] (20 mg/kg single injection i.p., by one week), the death rate is recorded as 100%. Besides, in data set [8] (single injection, i.p.), the MTD is 10 to 15 mg/kg. Also, the IC50 was 36.2 ± 5.2 µM in data set [4] (SK-N-BE(2)-C, 24 h, read-out: Cytotoxicity IC50, 24 hr assay, single agent, 1% DMSO); 43.5 ± 7 µM in data set [4] (SK-N-BE(2)-C, 24 h, read-out: Cytotoxicity IC50 of melphalan, 24 hr assay, + 5 μM MIBG); 11.3 ± 5.4 µM in data set [4] (SK-N-BE(2)-C, 24 h, read-out: Cytotoxicity IC50 of melphalan, 24 hr assay, + 5 μM cmMIBG (Table 2D)); 22.9 µM in data set [4] (SK-N-BE(2)-C, 24 h, read-out: Cytotoxicity IC50 of melphalan, competition experiment, 24 hr assay, + 5 μM cmMIBG + 5 μM MIBG); 8.1 µM in [4] (SK-N-BE(2)-C, 24 h, read-out: Cytotoxicity IC50 of melphalan, competition experiment, 24 hr assay, + 5 μM cmMIBG plus vehicle (no MIBG)); 25.8 ± 3.5 µM in data set [4] (SK-N-BE(2)-C, 48 h, read-out: Cytotoxicity IC50, 48 hr assay, single agent, Table 4). The concentration for half-maximal inhibition (IC50) is 13.9 ± 4.7 µM in data set [4] (SK-N-BE(2)-C, 48 h, read-out: Cytotoxicity IC50 of melphalan, 48 hr assay, + 1 μM cmMIBG added at same time); 7.3 ± 1.3 µM in [4] (SK-N-BE(2)-C, 48 h, read-out: Cytotoxicity IC50 of melphalan, 48 hr assay, + 5 μM cmMIBG added at same time); 25.8 ± 3.54 µM in data set [4] (SK-N-BE(2)-C, read-out: Cytotoxicity IC50, 48 hr assay (24 h exposure + 24 h recovery), Table 3); 14 ± 3.7 µM in data set [4] (SK-N-BE(2)-C, read-out: Cytotoxicity IC50 of melphalan, 48 hr assay, cells treated with 1 μM cmMIBG for 3 hrs, then melphalan added); 10.2 ± 0.9 µM in [4] (SK-N-BE(2)-C, read-out: Cytotoxicity IC50 of melphalan, 48 hr assay, cells treated with 5 μM cmMIBG for 3 hrs, then melphalan added); 54.1 ± 13.8 µM in data set [5] (Homo sapiens, SK-N-SH, 48 h, read-out: Cytotoxicity IC50, 48 hr assay, single agent, Table 4). For the same compound, the IC50 in data set [5] (Homo sapiens, SK-N-SH, 48 h, read-out: Cytotoxicity IC50 of melphalan, 48 hr assay, + 1 μM cmMIBG added at same time) was 36.7 ± 18.7 µM; in data set [5] (Homo sapiens, SK-N-SH, 48 h, read-out: Cytotoxicity IC50 of melphalan, 48 hr assay, + 5 μM cmMIBG added at same time), 29.9 ± 10.6 µM; in data set [5] (Homo sapiens, SK-N-SH, read-out: Cytotoxicity IC50, 48 hr assay (24 h exposure + 24 h recovery), Table 3), 54.1 ± 13.8 µM; in [5] (Homo sapiens, SK-N-SH, read-out: Cytotoxicity IC50 of melphalan, 48 hr assay, cells treated with 1 μM cmMIBG for 3 hrs, then melphalan added), 29.8 ± 4.8 µM; in data set [5] (Homo sapiens, SK-N-SH, read-out: Cytotoxicity IC50 of melphalan, 48 hr assay, cells treated with 5 μM cmMIBG for 3 hrs, then melphalan added) it was 38.4 ± 7.7 µM. For the same compound, the IC50 at 24 h in data set [9] (+ 5 μM MIBG, read-out: Cytotoxicity IC50 of melphalan) turned out to be 386 ± 181 µM; in data set [9] (+ 5 μM cmMIBG (Table 2D), read-out: Cytotoxicity IC50 of melphalan), 276 ± 28 µM; in data set [9] (setting [12]), 250 ± 112 µM. Also, the IC50 at 48 h was found to be 126 ± 28 µM in [9] (setting [11]); 127 ± 17 µM in data set [9] (48 hr assay, + 1 μM cmMIBG added at same time, read-out: Cytotoxicity IC50 of melphalan); 75 ± 25 µM in data set [9] (48 hr assay, + 5 μM cmMIBG added at same time, read-out: Cytotoxicity IC50 of melphalan); 60 ± 7 µM in data set [9] (48 hr assay, cells treated with 1 μM cmMIBG for 3 hrs, then melphalan added, read-out: Cytotoxicity IC50 of melphalan); 43 ± 11 µM in [9] (48 hr assay, cells treated with 5 μM cmMIBG for 3 hrs, then melphalan added, read-out: Cytotoxicity IC50 of melphalan); 126 ± 28 µM in data set [9] (48 hr assay, single agent, Table 4, read-out: Cytotoxicity IC50).
For `ClCc1ccccc1` [chloromethyl-benzene, benzylchloride], the IC50 in data set [4] (setting [10]) was found to be 172 ± 31 µM. Further, in [9] (setting [12]), the IC50 at 24 h turned out to be 390 ± 77 µM.
Turning to `N=C(N)NCc1ccc(CO)c(I)c1` [hydroxymethyl-MIBG], the “displacement of [125I]MIBG (specific cell-bound radioactivity)” value in [7] is 27%.
